In patent US10301280B2 (Plexxikon Inc., priority 2012, dated 2019) one finds IC50 data, which are given here for 22 compounds.

Assay [1] addresses c-kit kinase (Homo sapiens (Human), UniProt P10721). As to the kind of experiment: c-Kit biochemical assay (AlphaScreen). The settings on record: c-kit biochemical inhibitory activity. The procedure: Assays for biochemical cell-based activity of c-kit kinase are known in the art, for example, as described in U.S. Pat. Nos. 7,498,342 and 7,846,941, the disclosures of which are hereby incorporated by reference as it relates to such assays. The c-kit (or kinase domain thereof) is an active kinase in AlphaScreen. IC50 values are determined with respect to inhibition of c-Kit kinase activity, where inhibition of phosphorylation of a peptide substrate is measured as a function of compound concentration. Compounds to be tested were dissolved in DMSO to a concentration of 20 mM. These were diluted 30 μl into 120 μl of DMSO (4 mM) and 1 μl was added to an assay plate. These were then serially diluted 1:3 (50 μl to 100 μl DMSO) for a total of 8 points. Plates were prepared such that each kinase reaction is 20 μl in 1× kinase buffer (50 mM HEPES, pH 7.2, 5 mM MgCl2, 5 mM MnCl2, 0.01% NP-40, 0.2% BSA), 5% DMSO and 10 µM ATP. Substrate was 100 nM biotin-(E4Y)3 (Open Source Biotech, Inc.). C-kit kinase was at 0.1 ng per sample. After incubation of the kinase reaction for 1 hour at room temperature, 5 μl of donor beads (Streptavidin coated beads (Perkin Elmer Life Science) final concentration 1 μg/ml) in stop buffer (50 mM EDTA in 1× kinase buffer) was added, the sample was mixed and incubated for 20 minutes at room temperature before adding 5 μl of acceptor beads (PY20 coated beads (Perkin Elmer Life Science) final concentration 1 μg/ml) in stop buffer. The samples were incubated for 60 minutes at room temperature and the signal per well was read on AlphaQuest reader. Phosphorylated substrate results in binding of the PY20 antibody and association of the donor and acceptor beads such that signal correlates with kinase activity. The signal vs. compound concentration was used to determine the IC50.
Compounds were also tested using a similar assay with a 10-fold higher ATP concentration. For these samples, compounds to be tested were dissolved in DMSO to a concentration of 20 mM. These were diluted 30 μl into 120 μl of DMSO (4 mM) and 1 μl was added to an assay plate. These were then serially diluted 1:3 (50 μl to 100 μl DMSO) for a total of 8 points. Plates were prepared such that each kinase reaction is 20 μl in 1× kinase buffer (25 mM HEPES, pH 7.5, 2 mM MgCl2, 2 mM MnCl2, 0.01% Tween-20, 1 mM DTT, and 0.001% BSA), 5% DMSO and 100 µM ATP. Substrate was 30 nM biotin-(E4Y)10 (Upstate Biotech, Cat#12-440). C-kit kinase was at 1 ng per sample. After incubation of the kinase reaction for 1 hour at room temperature, 5 μl of donor beads (Streptavidin coated beads (Perkin Elmer Life Science) final concentration 10 μg/ml) in stop buffer (25 mM HEPES pH 7.5, 100 mM EDTA, 0.3% BSA) was added, the sample was mixed and incubated for 20 minutes at room temperature before adding 5 μl of acceptor beads (PY20 coated beads (Perkin Elmer Life Science) final concentration 10 μg/ml) in stop buffer. The samples were incubated for 60 minutes at room temperature and the signal per well was read on AlphaQuest or Envision reader (Perkin Elmer Life Science). Phosphorylated substrate results in binding of the PY20 antibody and association of the donor and acceptor beads such that signal correlates with kinase activity. The signal vs. compound concentration was used to determine the IC50.
The c-kit enzyme used in the above assay was either obtained from Cell Signaling Technology (Cat. #7754) or was prepared as follows: A plasmid encoding kit (DNA and encoded protein sequences shown below) was engineered using common polymerase chain reaction (PCR) methods. Complementary DNA cloned from various human tissues were purchased from Invitrogen, and these were used as substrates in the PCR reactions. Specific custom synthetic oligonucleotide primers were designed to initiate the PCR product, and also to provide the appropriate restriction enzyme cleavage sites for ligation with the plasmids. […]

Assay [2] deals with BaF3-FL KIT D816V or BaF3-FL KIT V560G/D816V cell line. Kind of assay: Cell-based assays of c-Kit mutant kinase activity (cell growth, ATPlite). The settings on record: at least one of the c-kit cell assays of Example 26. The gist of the method: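 BaF3 cells dependent on full-length human KIT (D816V or V560G/D816V) seeded at 1×10^4 cells/well in RPMI with 10% FBS. Eight-point 1:3 dilutions from 10 μM top final (0.2% DMSO), 3 days at 37° C., 5% CO2. ATPlite luminescence gave IC50.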
A general note: Cellular ATP, detected with luciferase, serves as a proxy for viable cell number.

A value given as a limit tells only on which side of the number the result lay.

Chain of c-kit kinase (P10721 26-976): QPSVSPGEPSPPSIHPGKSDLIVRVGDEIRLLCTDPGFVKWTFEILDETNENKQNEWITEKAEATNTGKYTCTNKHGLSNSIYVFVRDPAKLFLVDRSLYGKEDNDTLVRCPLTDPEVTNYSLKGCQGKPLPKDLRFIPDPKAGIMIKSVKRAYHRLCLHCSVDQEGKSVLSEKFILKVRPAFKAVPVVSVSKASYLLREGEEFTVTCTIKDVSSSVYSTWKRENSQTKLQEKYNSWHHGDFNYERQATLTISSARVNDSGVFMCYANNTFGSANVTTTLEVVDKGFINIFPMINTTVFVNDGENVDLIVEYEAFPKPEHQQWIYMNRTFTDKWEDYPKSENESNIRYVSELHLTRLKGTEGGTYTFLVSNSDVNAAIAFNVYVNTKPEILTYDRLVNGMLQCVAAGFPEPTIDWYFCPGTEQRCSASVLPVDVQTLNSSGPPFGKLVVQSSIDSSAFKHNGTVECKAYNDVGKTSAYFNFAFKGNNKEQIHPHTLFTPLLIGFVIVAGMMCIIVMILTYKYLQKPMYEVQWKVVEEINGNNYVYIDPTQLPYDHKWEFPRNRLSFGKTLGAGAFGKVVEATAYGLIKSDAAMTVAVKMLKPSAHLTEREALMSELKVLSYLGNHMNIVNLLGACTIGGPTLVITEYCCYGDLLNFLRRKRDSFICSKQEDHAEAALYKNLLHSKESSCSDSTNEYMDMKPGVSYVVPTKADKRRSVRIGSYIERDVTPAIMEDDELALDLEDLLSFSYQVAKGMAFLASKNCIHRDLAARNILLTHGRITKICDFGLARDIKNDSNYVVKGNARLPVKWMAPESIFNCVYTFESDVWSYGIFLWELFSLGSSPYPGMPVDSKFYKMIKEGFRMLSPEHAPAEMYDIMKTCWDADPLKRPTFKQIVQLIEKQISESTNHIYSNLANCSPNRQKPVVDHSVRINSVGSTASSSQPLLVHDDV

One may read the IC50 as the concentration that inhibits the measured activity by half. With `Cc1n[nH]c(C(=O)Nc2cnc3c(c2)cc(C2=CCN(C(=O)N4CCOCC4)CC2)n3S(=O)(=O)c2ccccc2)c1C` [P-2033, N-[1-(benzenesulfonyl)-2-[1-(morpholine-4-carbonyl)-3,6-dihydro-2H-pyridin-4-yl]pyrrolo[2,3-b]pyridin-5-yl]-3,4-dimethyl-1H-pyrazole-5-carboxamide], the IC50 was 10 to 200 µM in assay [1] and less than 10 µM in assay [2].
On the same counts, the results for `Cc1n[nH]c(C(=O)Nc2cnc3[nH]c(C4=CCN(C(=O)N5CCOCC5)CC4)cc3c2)c1C` [P-2034, 3,4-dimethyl-N-[2-[1-(morpholine-4-carbonyl)-3,6-dihydro-2H-pyridin-4-yl]-1H-pyrrolo[2,3-b]pyridin-5-yl]-1H-pyrazole-5-carboxamide] are 0.0001 to 1 µM and less than 10 µM.
For `Cc1n[nH]c(C(=O)Nc2cnc3[nH]c(C4=CCN(C(=O)N5CCOCC5)CC4)cc3c2)c1Cl` [P-2036, 4-chloro-3-methyl-N-[2-[1-(morpholine-4-carbonyl)-3,6-dihydro-2H-pyridin-4-yl]-1H-pyrrolo[2,3-b]pyridin-5-yl]-1H-pyrazole-5-carboxamide] the same measures were 0.0001 to 1 µM and less than 10 µM.
For `Cc1n[nH]nc1C(=O)Nc1cnc2[nH]c(-c3ccc(F)cc3)cc2c1` [P-2037, N-[2-(4-fluorophenyl)-1H-pyrrolo[2,3-b]pyridin-5-yl]-5-methyl-2H-triazole-4-carboxamide], the IC50 in assay [1] is 1 to 10 µM; in assay [2], less than 10 µM.
In the case of `Cc1nn(C)cc1-c1cc2cc(NC(=O)c3[nH]nc(C)c3C)cnc2[nH]1` [P-2038, N-[2-(1,3-dimethylpyrazol-4-yl)-1H-pyrrolo[2,3-b]pyridin-5-yl]-4,5-dimethyl-1H-pyrazole-3-carboxamide], the IC50 in assay [1] is 0.0001 to 1 µM; in assay [2], less than 10 µM.
`Cc1[nH]nc(C(=O)Nc2cnc3[nH]c(C4=CCN(C(=O)C5CC5)CC4)cc3c2)c1Cl` [P-2039, 4-chloro-N-[2-[1-(cyclopropanecarbonyl)-3,6-dihydro-2H-pyridin-4-yl]-1H-pyrrolo[2,3-b]pyridin-5-yl]-5-methyl-1H-pyrazole-3-carboxamide]: the IC50 in assay [1] was 0.0001 to 1 µM; in assay [2] it was less than 10 µM.
For `Cc1n[nH]c(C(=O)Nc2cnc3[nH]nc(C)c3c2)c1C` [P-2040, 3,4-dimethyl-N-(3-methyl-1H-pyrazolo[3,4-b]pyridin-5-yl)-1H-pyrazole-5-carboxamide] the same measures were 10 to 200 µM and less than 10 µM.
For `Cc1cc(C(=O)Nc2cnc3[nH]c(C4=CCN(C(=O)C5CC5)CC4)cc3c2)n[nH]1` [P-2042, N-[2-[1-(cyclopropanecarbonyl)-3,6-dihydro-2H-pyridin-4-yl]-1H-pyrrolo[2,3-b]pyridin-5-yl]-5-methyl-1H-pyrazole-3-carboxamide] the same measures were 0.0001 to 1 µM and less than 10 µM.
As for `Cc1[nH]nc(C(=O)Nc2cnc3[nH]c(C4=CCN(C(=O)C5CC5)CC4)cc3c2)c1C` [P-2043, N-[2-[1-(cyclopropanecarbonyl)-3,6-dihydro-2H-pyridin-4-yl]-1H-pyrrolo[2,3-b]pyridin-5-yl]-4,5-dimethyl-1H-pyrazole-3-carboxamide], the results for the IC50 in assay [1] and in assay [2] were 0.0001 to 1 µM and less than 10 µM, respectively.
As to `Cc1n[nH]c(C(=O)Nc2cnc(Nc3ccccc3)nc2)c1C` [P-2044, N-(2-anilinopyrimidin-5-yl)-3,4-dimethyl-1H-pyrazole-5-carboxamide], the IC50 in assay [1] is 10 to 200 µM; in assay [2], less than 10 µM.
As to `Cc1n[nH]c(C(=O)Nc2ccc(Nc3ccccc3)nc2)c1C` [P-2045, N-(6-anilino-3-pyridyl)-3,4-dimethyl-1H-pyrazole-5-carboxamide], the half-maximal inhibitory concentration (IC50) in assay [1] was 10 to 200 µM; in assay [2], less than 10 µM.
For `O=C(Nc1cnc2[nH]c(-c3ccc(F)cc3)cc2c1)c1n[nH]c2ccccc12` [P-2046, N-[2-(4-fluorophenyl)-1H-pyrrolo[2,3-b]pyridin-5-yl]-1H-indazole-3-carboxamide] the same measures were 10 to 200 µM and less than 10 µM.
On the same counts, the results for `O=C(Nc1cnc2[nH]c(-c3ccc(F)cc3)cc2c1)c1n[nH]c2c1CCCC2` [P-2047, N-[2-(4-fluorophenyl)-1H-pyrrolo[2,3-b]pyridin-5-yl]-4,5,6,7-tetrahydro-1H-indazole-3-carboxamide] are 10 to 200 µM and less than 10 µM.
On the same counts, the results for `Cc1n[nH]c(C(=O)Nc2cnc3[nH]c(-c4cnn(C5CCNCC5)c4)cc3c2)c1C` [P-2048, 3,4-dimethyl-N-[2-[1-(4-piperidyl)pyrazol-4-yl]-1H-pyrrolo[2,3-b]pyridin-5-yl]-1H-pyrazole-5-carboxamide] are 0.0001 to 1 µM and less than 10 µM.
For the compound `Cc1n[nH]c(C(=O)Nc2cnc3[nH]c(Cl)cc3c2)c1C` [P-2049, N-(2-chloro-1H-pyrrolo[2,3-b]pyridin-5-yl)-3,4-dimethyl-1H-pyrazole-5-carboxamide], the IC50 in assay [1] was 10 to 200 µM; in assay [2], less than 10 µM.
On the same counts, the results for `CCNS(=O)(=O)c1cccc(Nc2ncc(NC(=O)c3[nH]nc(C)c3C)cn2)c1` [P-2050, N-[2-[3-(ethylsulfamoyl)anilino]pyrimidin-5-yl]-3,4-dimethyl-1H-pyrazole-5-carboxamide] are 10 to 200 µM and less than 10 µM.
For `Cc1n[nH]c(C(=O)Nc2cnc(Nc3cccc(N4CCOCC4)c3)nc2)c1C` [P-2051, 3,4-dimethyl-N-[2-(3-morpholinoanilino)pyrimidin-5-yl]-1H-pyrazole-5-carboxamide] the same measures were 0.0001 to 1 µM and less than 10 µM.
On the same counts, the results for `CCCS(=O)(=O)Nc1cccc(Nc2ncc(NC(=O)c3[nH]nc(C)c3C)cn2)c1` [P-2052, 3,4-dimethyl-N-[2-[3-(propylsulfonylamino)anilino]pyrimidin-5-yl]-1H-pyrazole-5-carboxamide] are 1 to 10 µM and less than 10 µM.
Regarding `Cc1n[nH]c(C(=O)Nc2cnc(Nc3cccc(NS(=O)(=O)c4ccccc4)c3)nc2)c1C` [P-2053, N-[2-[3-(benzenesulfonamido)anilino]pyrimidin-5-yl]-3,4-dimethyl-1H-pyrazole-5-carboxamide], the IC50 in assay [1] was 1 to 10 µM; in assay [2], less than 10 µM.
On the same counts, the results for `CNC(=O)c1cccc(Nc2ncc(NC(=O)c3[nH]nc(C)c3C)cn2)c1` [P-2054, 3,4-dimethyl-N-[2-[3-(methylcarbamoyl)anilino]pyrimidin-5-yl]-1H-pyrazole-5-carboxamide] are 1 to 10 µM and less than 10 µM.
On the same counts, the results for `CCOC(=O)Nc1cccc(Nc2ncc(NC(=O)c3[nH]nc(C)c3C)cn2)c1` [P-2055, ethyl N-[3-[[5-[(3,4-dimethyl-1H-pyrazole-5-carbonyl)amino]pyrimidin-2-yl]amino]phenyl]carbamate] are 1 to 10 µM and less than 10 µM.
For `Cc1n[nH]c(C(=O)Nc2cnc3[nH]c(C4=CCN(S(C)(=O)=O)CC4)cc3c2)c1Cl` [P-2057, 4-chloro-3-methyl-N-[2-(1-methylsulfonyl-3,6-dihydro-2H-pyridin-4-yl)-1H-pyrrolo[2,3-b]pyridin-5-yl]-1H-pyrazole-5-carboxamide] the same measures were 0.0001 to 1 µM and less than 10 µM.
